Assay results: patent EP3056202A1, “BENZOPYRROLIDONE DERIVATIVES POSSESSING ANTIVIRAL AND ANTICANCER PROPERTIES” (Max-Planck-Gesellschaft zur Förderung der Wissenschaften …, priority 2015, dated 2016)
≈ marks a conversion by molar mass, not a printed value.

What was measured:
[1] = target: human Akt1 kinase (Homo sapiens, UniProt P31749); test: In vitro Akt1 assay (IMAP fluorescence polarization, phosphorylation of TAMRA-peptide); assay type: biochemical; conditions: 40 µM ATP
Method: The inhibition of Akt1 by the compounds described in the present invention were determined measuring the phosphorylation of a fluorescently-labeled peptide (TAMRA-peptide) by human Akt1 kinase by fluorescent polarization using a commercially available IMAP Screening Express Assay Kit (Molecular Devices).
Akt1 kinase assays were performed in low protein binding 384-well plates (Corning). Test compounds were diluted in 100% DMSO to 5 mM stock concentration and then further dilutions were made in H2O or 100% DMSO to desirable concentrations.
Each reaction consisted of 5 nM enzyme: Akt1 kinase, 400 nM TAMRA-peptide (5-TAMRA-GRTGRRNSI-COOH; Genecust), 40 µM ATP and kinase buffer: 20 mM MES pH6, 1 mM DTT, 10 mM MgCl2, 2 mM MnCl2, 0.01 V/V% TritonX (all reagents from Sigma-Aldrich).
(§1) For each reaction, 4 or 6 µl containing TAMRA-peptide, ATP and kinase buffer were combined with 2 µl diluted compound in H2O or 0.02 µl compound in 100% DMSO. The kinase reaction was started by the addition of 2 µl diluted enzyme. The reaction was allowed to run for 1 hour at room temperature. The reaction was stopped by adding 15 µl IMAP beads (1:400 beads in progressive (75% buffer A, 25% buffer B) 1x buffer). After an additional hour, fluorescent polarization (Ex: 550-10 nm, Em: 590-10 nm, Dich: 561 nm) was measured using an Analyst GT (Molecular Devices).

[2] = target: human Ack1 kinase (Homo sapiens, UniProt Q07912); test: In vitro Ack1 assay (TranScreener ADP2 FP, generation of ADP); assay type: biochemical; conditions: 12.5 uM compound; 3.5 µM ATP; read-out: Ack1 inh% @12.5 uM
Chain of human Ack1 kinase (Q07912 whole entry): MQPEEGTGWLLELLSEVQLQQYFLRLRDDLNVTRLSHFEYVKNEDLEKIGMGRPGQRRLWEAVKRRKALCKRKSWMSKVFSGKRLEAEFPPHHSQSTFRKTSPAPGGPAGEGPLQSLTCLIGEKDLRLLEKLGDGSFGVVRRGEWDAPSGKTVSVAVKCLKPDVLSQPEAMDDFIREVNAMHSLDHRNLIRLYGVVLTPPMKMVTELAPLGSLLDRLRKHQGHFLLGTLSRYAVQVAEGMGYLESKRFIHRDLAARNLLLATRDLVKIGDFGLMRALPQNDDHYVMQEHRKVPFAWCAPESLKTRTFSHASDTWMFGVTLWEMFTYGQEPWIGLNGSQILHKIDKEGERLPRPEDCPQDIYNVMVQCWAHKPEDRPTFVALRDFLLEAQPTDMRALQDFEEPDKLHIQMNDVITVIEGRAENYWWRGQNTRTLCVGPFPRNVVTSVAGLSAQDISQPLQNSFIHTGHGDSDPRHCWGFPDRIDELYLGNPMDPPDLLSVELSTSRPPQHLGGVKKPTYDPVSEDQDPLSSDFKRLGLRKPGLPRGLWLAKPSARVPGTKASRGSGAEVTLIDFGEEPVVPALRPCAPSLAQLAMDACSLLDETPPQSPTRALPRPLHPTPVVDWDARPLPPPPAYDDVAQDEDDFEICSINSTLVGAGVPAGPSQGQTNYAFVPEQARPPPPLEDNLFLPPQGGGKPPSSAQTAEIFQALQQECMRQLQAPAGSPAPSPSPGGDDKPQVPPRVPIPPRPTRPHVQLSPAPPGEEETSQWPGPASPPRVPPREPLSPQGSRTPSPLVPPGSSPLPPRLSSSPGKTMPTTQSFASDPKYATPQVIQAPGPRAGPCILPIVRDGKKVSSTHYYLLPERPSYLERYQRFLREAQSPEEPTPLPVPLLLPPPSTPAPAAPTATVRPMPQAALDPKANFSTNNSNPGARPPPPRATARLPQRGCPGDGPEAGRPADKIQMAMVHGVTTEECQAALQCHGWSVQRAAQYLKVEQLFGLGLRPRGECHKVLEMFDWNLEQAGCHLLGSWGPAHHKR
Method: The activity of the compounds described in the present invention can be determined by the following kinase assay, which measures the generation of ADP by human Ack1 kinase by fluorescent polarization using a commercially available TranScreener ADP2 FP Assay Kit (BellBrook Labs).
Ack1 kinase assays were performed in low protein binding 384-well plates (Corning). Test compounds were diluted in 100% DMSO to 5 mM stock concentration and then further dilutions were made in H2O or 100% DMSO to desirable concentrations.
Each reaction consisted of 5 nM enzyme: Ack1 kinase, Poly Glu-Tyr (4:1) (Sigma), 3.5 µM ATP and kinase buffer: 20 mM HEPES pH7.5, 1 mM DTT, 2 mM MgCl2, 0.4 mM MnCl2, 0.01 V/V% Tween20 (all reagents from Sigma-Aldrich)
For each reaction, 4 or 6 µl containing Poly Glu-Tyr (4:1), ATP and kinase buffer were combined with 2 µl diluted compound in H2O or 0.02 µl compound in 100% DMSO. The kinase reaction was started by the addition of 2 µl diluted enzyme. The reaction was allowed to run for 1 hour at room temperature. The reaction was stopped by addition of 8 µl ADP detection mixture (1 x) (1 x Detection buffer + 4.78 µg/ml ADP2 Ab + 4 nM ADP Alexa633 Tracer). After an additional hour, fluorescent polarization (Ex: 630-35 nm, Em: 680-30 nm, Dich: 650 nm) was measured using an Analyst GT (Molecular Devices).

[3] = target: T1, human Clk1 kinase (Homo sapiens, UniProt P49759); test: In vitro Clk1 assay (IMAP fluorescence polarization); assay type: biochemical; conditions: 0.45 µM ATP
T1 construct: Each reaction consisted of 4 nM enzyme: Clk1 kinase domain
T1 sequence (P49759 161-477 limits assumed): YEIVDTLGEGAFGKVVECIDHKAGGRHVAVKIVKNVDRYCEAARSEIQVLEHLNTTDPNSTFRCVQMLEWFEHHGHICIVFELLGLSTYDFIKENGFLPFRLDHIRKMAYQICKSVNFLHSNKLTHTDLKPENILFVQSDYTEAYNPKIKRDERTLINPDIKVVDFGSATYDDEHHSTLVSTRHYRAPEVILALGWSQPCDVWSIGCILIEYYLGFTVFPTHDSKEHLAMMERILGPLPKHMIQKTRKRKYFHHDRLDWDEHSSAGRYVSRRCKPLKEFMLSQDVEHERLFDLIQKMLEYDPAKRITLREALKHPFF
Method: The activity of the compounds described in the present invention can be determined by the following kinase assay, which measures the phosphorylation of a fluorescently-labeled peptide by human Clk1 kinase by fluorescent polarization using a commercially available IMAP Screening Express Assay Kit (Molecular Devices).
Clk1 kinase assays were performed in low protein binding 384-well plates (Corning). Test compounds were diluted in 100% DMSO to 5 mM stock concentration and then further dilutions were made in H2O or 100% DMSO to desirable concentrations.
Each reaction consisted of 4 nM enzyme: Clk1 kinase domain, 400 nM TAMRA-AFRREWSPGKEAKK-NH2 (Genecust), 0.45 µM ATP (Sigma) and kinase buffer: 20 mM TRIS pH 8, 1 mM DTT, 0.4 mM MgCl2, 0.4 mM MnCl2, 0.01 V/V% Tween20 (all reagents from Sigma-Aldrich)
as §1, with “(1:600” for “(1:400”, “(80 %” for “(75%”, “20%” for “25%”

[4] = tested on: H1 N1 influenza virus strain A/WSN/33; test: microbe, parasite or virus in culture; assay type: cell-based; conditions: 36 h, read-out: Influenza replication IC50
[5] = tested on: A549 human lung carcinoma cells; test: Cell-based EC50 determination, A549 cells (CellTiter-Glo cell viability); conditions: A549, 24 h, read-out: A549 EC50 24h
Method: A549 human lung carcinoma cells were cultured in RPMI 1640 medium (Sigma) supplemented with 10% fetal bovine serum (Sigma) and Antibiotic-Antimycotic (Sigma) in tissue culture flasks at 37°C in a humidified 5% CO2 atmosphere. Cells were routinely assayed for mycoplasma contamination.
Two thousand cells were plated in 384-well tissue culture plates, and treated after 24 hours with a 10-point dilution series of the compounds (1.5 nM-30 uM), using the vehicle, DMSO as control. Cells were incubated for 24 hours after which the relative cell density was determined by CellTiter-Glo Luminescent Cell Viability Assay (Promega). This method determines the number of metabolically active cells in the culture based on quantitation of the ATP present. The luminescent signal was measured with an Analyst GT multimode reader (Molecular Devices). […]

[6] = physchem; assay type: physicochemical; conditions: kinetic from dmso stock
Method: Samples were diluted in DMSO (control), phosphate buffer pH = 7.4 and pH = 2.0, from 5mM stock solutions (solved in DMSO), with a 120 µM final concentration. The samples were incubated for 24 hours at room temperature followed by 30 minutes centrifugation at 3700 rpm. 40 µl of the supernatants were injected into HPLC (Waters 2795 Alliance HPLC equipped with Waters 996 PDA Detector (HPLC column: Waters XBridge, RP C18, 3.5 µm, 4.6 mm x 50 mm; gradient MeCN/H2O, containing 0.1% HCOOH: 5% MeCN (0.5 min), 5% to 95% MeCN (5 min), 95% MeCN (0.5 min); flow rate: 2.0 ml/min)) and the AUC values (measured on sample specific wavelength) of the buffered samples were divided by the AUC values (same wavelength as buffered samples') of the DMSO control samples. Table 3: Solubility in water for several compounds according to general formula (I)

[7] = tested on: HCT-116 human colon carcinoma cell line; test: In vitro growth inhibition of colon carcinoma cells, HCT-116 (CellTiter-Glo); assay type: cell-based; conditions: 72 hours incubation, read-out: HCT116 EC50
[8] = tested on: HKE3 human colon carcinoma cell line; test: In vitro growth inhibition of colon carcinoma cells, HKE3 (CellTiter-Glo); assay type: cell-based; conditions: 72 hours incubation
[9] = tested on: HepG2 hepatoblastomaderived cell line; test: In vitro growth inhibition, HepG2 (CellTiter-Glo); assay type: cell-based; conditions: Homo sapiens, 72 hours incubation

Chain of human Akt1 kinase (P31749 whole entry): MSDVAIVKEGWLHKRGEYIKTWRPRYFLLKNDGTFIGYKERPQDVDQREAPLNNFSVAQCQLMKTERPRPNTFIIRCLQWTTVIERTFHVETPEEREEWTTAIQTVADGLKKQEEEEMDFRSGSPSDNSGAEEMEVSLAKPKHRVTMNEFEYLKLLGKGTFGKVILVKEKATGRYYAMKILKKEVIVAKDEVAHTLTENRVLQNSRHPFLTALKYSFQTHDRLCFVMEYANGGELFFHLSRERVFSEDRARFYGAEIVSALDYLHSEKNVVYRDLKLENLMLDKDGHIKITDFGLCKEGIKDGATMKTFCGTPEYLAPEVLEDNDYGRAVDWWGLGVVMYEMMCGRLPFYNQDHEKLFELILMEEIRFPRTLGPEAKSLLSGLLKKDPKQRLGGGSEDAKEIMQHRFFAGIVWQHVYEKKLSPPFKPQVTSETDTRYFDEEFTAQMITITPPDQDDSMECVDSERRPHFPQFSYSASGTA

## CC[C@@H](NC(=O)c1ccc2c(c1)/C(=C(/Nc1cccc(CN3CCCCC3)c1)c1ccccc1)C(=O)N2)c1ccccc1 [Compound 12, (3Z)-2-oxo-3-(phenyl{[3-(piperidin-1-ylmethyl)phenyl]amino}methylene)-N-[(1R)-1-phenylpropyl]indoline-5-carboxamide]
[1]; 12.5 uM compound, read-out: Akt1 inh% @12.5 uM
  inhibition at 12.5 µM: 75.1%
[1]
  IC50: 7980 nM
[2]
  inhibition at 12.5 µM: 18.1%
[3]
  IC50: 210 nM
[4]
  IC50: 10 nM
[5]
  EC50: 6890 nM
[6]; pH 2, aqueous buffer
  solubility at 24 h: 110 to 120 µM (≈ 62.8 to 68.5 µg/mL)
[6]; pH 7.4, aqueous buffer
  solubility at 24 h: < 10 µM
[7]
  EC50: 30 nM
[8]
  EC50: 20 nM
[9]
  EC50: 3520 nM

## CC[C@H](NC(=O)c1ccc2c(c1)/C(=C(/Nc1ccc(CN3CCCCC3)cc1)c1ccccc1)C(=O)N2)c1ccccc1 [Compound 32, (3Z)-2-oxo-3-(phenyl{[4-(piperidin-1-ylmethyl)phenyl]amino}methylene)-N-[(1S)-1-phenylpropyl]indoline-5-carboxamide]
[1]
  IC50: > 12500 nM
[3]
  IC50: 100 nM
[4]
  IC50: 10100 nM
[5]
  EC50: 6380 nM
[6]; pH 2, aqueous buffer
  solubility at 24 h: 110 to 120 µM (≈ 62.8 to 68.5 µg/mL)
[6]; pH 7.4, aqueous buffer
  solubility at 24 h: < 10 µM

## COc1cccc([C@@H](C)NC(=O)c2ccc3c(c2)/C(=C(/Nc2ccc(CN4CCN(C)CC4)cc2)c2ccccc2)C(=O)N3)c1 [Compound 35, (3Z)-N-[(1R)-1-(3-methoxyphenyl)ethyl]-3-[({4-[(4-methylpiperazin-1-yl)methyl]phenyl}amino)(phenyl)methylene]-2-oxoindoline-5-carboxamide]
[1]
  IC50: 2510 nM
[3]
  IC50: 10 nM
[4]
  IC50: 20 nM
[5]
  EC50: 4990 nM
[6]; pH 2, aqueous buffer
  solubility at 24 h: 110 to 120 µM (≈ 66.2 to 72.2 µg/mL)
[6]; pH 7.4, aqueous buffer
  solubility at 24 h: 10 to 20 µM (≈ 6.02 to 12 µg/mL)
[7]
  EC50: 30 nM
[8]
  EC50: 20 nM
[9]
  EC50: 2120 nM

## C[C@@H](NC(=O)c1ccc2c(c1)/C(=C(/Nc1ccc(CN3CCN(C)CC3)cc1)c1ccccc1)C(=O)N2)c1cccc(Cl)c1 [Compound 36, (3Z)-N-[(1R)-1-(3-chlorophenyl)ethyl]-3-[({4-[(4-methylpiperazin-1-yl)methyl]phenyl}amino)(phenyl)methylene]-2-oxoindoline-5-carboxamide]
[1]
  IC50: 330 nM
[3]
  IC50: 20 nM
[4]
  IC50: < 10 nM
[5]
  EC50: 1770 nM
[6]; pH 2, aqueous buffer
  solubility at 24 h: 100 to 110 µM (≈ 60.6 to 66.7 µg/mL)
[6]; pH 7.4, aqueous buffer
  solubility at 24 h: < 10 µM
[7]
  EC50: 20 nM
[8]
  EC50: 20 nM
[9]
  EC50: 640 nM

## CC[C@@H](NC(=O)c1ccc2c(c1)/C(=C(/Nc1ccc(CN3CCN(C)CC3)cc1)c1ccccc1)C(=O)N2)c1ccccc1 [Compound 37, (3Z)-3-[({4-[(4-methylpiperazin-1-yl)methyl]phenyl}amino)(phenyl)methylene]-2-oxo-N-[(1R)-1-phenylpropyl]indoline-5-carboxamide]
[1]
  IC50: 2050 nM
[3]
  IC50: 10 nM
[4]
  IC50: < 10 nM
[5]
  EC50: 2010 nM
[6]; pH 2, aqueous buffer
  solubility at 24 h: 110 to 120 µM (≈ 64.4 to 70.3 µg/mL)
[6]; pH 7.4, aqueous buffer
  solubility at 24 h: < 10 µM
[7]
  EC50: 1 nM
[8]
  EC50: < 1.52 nM
[9]
  EC50: 360 nM

## C[C@@H](NC(=O)c1ccc2c(c1)/C(=C(/Nc1ccc(CN3CCN(C)CC3)cc1)c1ccccc1)C(=O)N2)c1ccccc1 [Compound 38, (3Z)-3-[({4-[(4-methylpiperazin-1-yl)methyl]phenyl}amino)(phenyl)methylene]-2-oxo-N-[(1R)-1-phenylethyl]indoline-5-carboxamide]
[1]
  IC50: 1830 nM
[3]
  IC50: 10 nM
[4]
  IC50: < 10 nM
[5]
  EC50: 3670 nM
[6]; pH 2, aqueous buffer
  solubility at 24 h: 110 to 120 µM (≈ 62.9 to 68.6 µg/mL)
[6]; pH 7.4, aqueous buffer
  solubility at 24 h: 10 to 20 µM (≈ 5.72 to 11.4 µg/mL)
[7]
  EC50: 10 nM
[8]
  EC50: 10 nM
[9]
  EC50: 1120 nM

## COc1ccc(CNC(=O)c2ccc3c(c2)/C(=C(/Nc2ccc(CN4CCN(C)CC4)cc2)c2ccccc2)C(=O)N3)cc1OC [Compound 39, (3Z)-N-(3,4-dimethoxybenzyl)-3-[({4-[(4-methylpiperazin-1-yl)methyl]phenyl}amino)(phenyl)methylene]-2-oxoindoline-5-carboxamide]
[1]
  IC50: 12300 nM
[3]
  IC50: 10 nM
[4]
  IC50: 100 nM
[5]
  EC50: 18800 nM
[6]; pH 2, aqueous buffer
  solubility at 24 h: 110 to 120 µM (≈ 68 to 74.1 µg/mL)
[6]; pH 7.4, aqueous buffer
  solubility at 24 h: < 10 µM
[7]
  EC50: 3800 nM
[8]
  EC50: 2960 nM
[9]
  EC50: 24200 nM

## COc1cccc(CNC(=O)c2ccc3c(c2)/C(=C(/Nc2ccc(CN4CCN(C)CC4)cc2)c2ccccc2)C(=O)N3)c1 [Compound 40, (3Z)-N-(3-methoxybenzyl)-3-[({4-[(4-methylpiperazin-1-yl)methyl]phenyl}amino)(phenyl)methylene]-2-oxoindoline-5-carboxamide]
[1]
  IC50: 3400 nM
[3]
  IC50: 10 nM
[4]
  IC50: < 10 nM
[5]
  EC50: 14600 nM
[6]; pH 2, aqueous buffer
  solubility at 24 h: 110 to 120 µM (≈ 64.6 to 70.5 µg/mL)
[6]; pH 7.4, aqueous buffer
  solubility at 24 h: < 10 µM
[7]
  EC50: 110 nM
[8]
  EC50: 80 nM
[9]
  EC50: 10000 nM
